Source: PubChem BioAssay AID1963843 (Molecular Pharmacology Branch, DTP, NCI, 2024)

Tested on: 616215-338-R-J1-PDC complex spheroid viability
Assay: Anticancer human tumor 616215-338-R-J1-PDC patient-derived colon adenocarcinoma cell line growth inhibition [POLQ]
Conditions: for IC50: curve of first compound; for viability, T/C: stronger effect = lower value; active = viability on the fitted dose curve at most 10% of control; inactive = the rest
Method: Multicellular complex tumor spheroid response to Polymerase (POL) inhibitors (novobiocin, ART-558, RP6685) in combination with a variety of drugs and investigational agents in selected tumor cell lines
The POL inhibitors (novobiocin, ART-558, and RP6685) were evaluated both individually and in combination with standard of care and investigational anticancer small molecules within a complex spheroid model of solid tumors. . Complex spheroids include a stromal component modeled by human endothelial cells (HUVEC) and fibroblasts modeled by human mesenchymal stem cells (MSCs). The concentration ranges selected for each drug and investigational agent were based upon clinically achievable concentrations if the clinical Cmax of the agent was known.
Compounds. The drugs and investigational agents: novobiocin (NSC847541), ART-558 (NSC835418), RP-6685 (NSC848927), peposertib (NSC802822), ceralasertib (NSC780249), elimusertib (NSC800525), camonsertib (NSC841442), AZD-1390 (NSC803789), olaparib (NSC753686), talazoparib (NSC767125), rucaparib (NSC756644), sotorasib (NSC818433), MRTX-1133 (NSC836407), SN-38 (NSC673596), topotecan (NSC609699), epotoside (NSC141540), doxorubicin (NSC123127), gemcitabine (NSC613327), 5-fluorouracil (NSC19893), paclitaxel (NSC125973), vemurafenib (NSC761431), MSA-2 (NSC828583), SN-011 (NSC837082), adavosertib (NSC754352), prexasertib (NSC758257), carboplatin (NSC241240) and oxaliplatin (NSC266046), were obtained from the National Cancer Institute (NCI) Developmental Therapeutics Program Chemical Repository (21). The FDA-approved anticancer drug set is available from the Developmental Therapeutics Program at https://dtp.cancer.gov/organization/dscb/obtaining/. […] The stock solutions were prepared in dimethyl sulfoxide (DMSO, Sigma-Aldrich, St. Louis, MO, cat. D2650), except for the platinum compounds which were prepared in saline (Quality Biological, Gaithersburg, MD, cat. 114-055-101), at 800-fold the tested concentration and stored at -70 degrees C prior to their use. All drugs and investigational agents were tested over a range starting from a high concentration at or near the clinical Cmax and decreasing in half-log increments. If the clinical Cmax for an agent had not been determined, the highest concentration tested was 10 microM, except for SN-38, which was tested at a high concentration of 1 microM.
Cell Culture. All cells were maintained in an incubator at 37 degrees C and 5% CO2 with 95% humidity. The PDC lines were cultured according to standard operating procedures established by the NCI PDMR (https://pdmr.cancer.gov). Table 3 of the manuscript, lists the cell lines along with the number of the three cell types plated to form the mct-spheroids and media for tumor cell growth. After thawing, all PDC lines, except 997537-175-T-J1-PDC and 415267-285-R-J2-PDC, were cultured in Matrigel-coated flasks prepared with a working solution of 1X Ham's F-12 nutrient mix, without supplementation (Thermo Fisher Scientific, cat. 11765054), 100 U/mL penicillin-streptomycin (Thermo Fisher Scientific, cat. 15140122), and 2.5% Matrigel (Corning Inc., Corning, NY, cat. 354248) for the first three passages. The two PDC lines 997537-175-T-J1-PDC and 415267-285-R-J2-PDC were cultured on uncoated flasks. The 857933-349-R-J2-PDC line was cultured in 6C/Colon 1B media containing advanced DMEM/F-12 (Thermo Fisher Scientific, cat. 12634028), 10 mM HEPES (Thermo Fisher Scientific, cat. 15630080), 1X GlutaMAX supplement (Thermo Fisher Scientific, cat. 35050061), 0.1 mg/mL primocin (InvivoGen, San Diego, CA, cat. ant-pm-2), 10% defined fetal bovine serum, heat inactivated (HyClone Laboratories Inc., Logan, UT, cat. SH30070.03HI), 50% L-WRN conditioned media (ATCC, cat. CRL-3276), 1.25 mM N-Acetyl-L-cysteine (Sigma-Aldrich, cat. A9165), 10 mM nicotinamide (Sigma-Aldrich, cat. N0636), 1X B-27 supplement (Thermo Fisher Scientific, cat. 17504044), 1X N-2 supplement (Thermo Fisher Scientific, cat. […]
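Note: spheroids exposed to compounds for one week before readout.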
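Throughout, for viability, T/C: percent viability relative to DMSO vehicle wells taken as 100%.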

CC(=O)O[C@H]1C(=O)[C@@]2(C)[C@H]([C@H](OC(=O)c3ccccc3)[C@]3(O)C[C@H](OC(=O)[C@H](O)[C@@H](NC(=O)c4ccccc4)c4ccccc4)C(C)=C1C3(C)C)[C@]1(OC(C)=O)CO[C@@H]1C[C@@H]2O + COC1C(OC(N)=O)C(O)C(Oc2ccc3c(O)c(NC(=O)c4ccc(O)c(CC=C(C)C)c4)c(=O)oc3c2C)OC1(C)C
29.3 nM: IC50 (second compound 3.16 µM)
25.2 nM: IC50 (second compound 0.316 µM)
45.4 nM: IC50 (second compound 0.1 µM)
inactive: viability, T/C (second compound 0.0316 µM, first compound 0.00949 µM) 76.1% | viability, T/C (second compound 0.0316 µM, first compound 0.03 µM) 52.6% | viability, T/C (second compound 0.0316 µM, first compound 0.0949 µM) 41% | viability, T/C (second compound 0.0316 µM, first compound 0.3 µM) 38.6% | viability, T/C (second compound 0.0316 µM, first compound 0.949 µM) 34.3% | viability, T/C (second compound 0.0316 µM, first compound 3 µM) 30.5% | viability, T/C (second compound 0.1 µM, first compound 0.00949 µM) 89.7% | viability, T/C (second compound 0.1 µM, first compound 0.03 µM) 54% | viability, T/C (second compound 0.1 µM, first compound 0.0949 µM) 42.5% | viability, T/C (second compound 0.1 µM, first compound 0.3 µM) 35.3% | viability, T/C (second compound 0.1 µM, first compound 0.949 µM) 37.1% | viability, T/C (second compound 0.1 µM, first compound 3 µM) 32.6% | viability, T/C (second compound 0.316 µM, first compound 0.00949 µM) 97.3% | viability, T/C (second compound 0.316 µM, first compound 0.03 µM) 41.5% | viability, T/C (second compound 0.316 µM, first compound 0.0949 µM) 40.4% | viability, T/C (second compound 0.316 µM, first compound 0.3 µM) 38.3% | viability, T/C (second compound 0.316 µM, first compound 0.949 µM) 38.5% | viability, T/C (second compound 0.316 µM, first compound 3 µM) 31.8% | viability, T/C (second compound 1 µM, first compound 0.00949 µM) 96.5% | viability, T/C (second compound 1 µM, first compound 0.03 µM) 44.1% | viability, T/C (second compound 1 µM, first compound 0.0949 µM) 37.1% | viability, T/C (second compound 1 µM, first compound 0.3 µM) 33.4% | viability, T/C (second compound 1 µM, first compound 0.949 µM) 31.4% | viability, T/C (second compound 1 µM, first compound 3 µM) 31.7% | viability, T/C (second compound 3.16 µM, first compound 0.00949 µM) 84.2% | viability, T/C (second compound 3.16 µM, first compound 0.03 µM) 48.2% | viability, T/C (second compound 3.16 µM, first compound 0.0949 µM) 40.8% | viability, T/C (second compound 3.16 µM, first compound 0.3 µM) 31.4% | viability, T/C (second compound 3.16 µM, first compound 0.949 µM) 36.1% | viability, T/C (second compound 3.16 µM, first compound 3 µM) 32.2% | viability, T/C (second compound 10 µM, first compound 0.00949 µM) 87.6% | viability, T/C (second compound 10 µM, first compound 0.03 µM) 48.3% | viability, T/C (second compound 10 µM, first compound 0.0949 µM) 42.2% | viability, T/C (second compound 10 µM, first compound 0.3 µM) 34.2% | viability, T/C (second compound 10 µM, first compound 0.949 µM) 32.7% | viability, T/C (second compound 10 µM, first compound 3 µM) 36.5%
26.9 nM: IC50 (second compound 1 µM)
41.8 nM: IC50 (second compound 0.0316 µM)
29.8 nM: IC50 (second compound 10 µM)

COc1cccc2c1C(=O)c1c(O)c3c(c(O)c1C2=O)CC(O)(C(=O)CO)CC3OC1CC(N)C(O)C(C)O1 (centres undefined) + COC1C(OC(N)=O)C(O)C(Oc2ccc3c(O)c(NC(=O)c4ccc(O)c(CC=C(C)C)c4)c(=O)oc3c2C)OC1(C)C
1410 nM: IC50 (second compound 10 µM)
864 nM: IC50 (second compound 0.316 µM)
active: viability, T/C (second compound 0.0316 µM, first compound 10 µM) 1.26% | viability, T/C (second compound 0.1 µM, first compound 10 µM) 1.74% | viability, T/C (second compound 0.316 µM, first compound 10 µM) 0.89% | viability, T/C (second compound 1 µM, first compound 10 µM) 0.25% | viability, T/C (second compound 3.16 µM, first compound 3.16 µM) 9.53% | viability, T/C (second compound 3.16 µM, first compound 10 µM) 0.27% | viability, T/C (second compound 10 µM, first compound 10 µM) 0.34%
762 nM: IC50 (second compound 0.1 µM)
964 nM: IC50 (second compound 1 µM)
inactive: viability, T/C (second compound 0.0316 µM, first compound 0.0316 µM) 98.8% | viability, T/C (second compound 0.0316 µM, first compound 0.1 µM) 102% | viability, T/C (second compound 0.0316 µM, first compound 0.316 µM) 79.2% | viability, T/C (second compound 0.0316 µM, first compound 1 µM) 52.5% | viability, T/C (second compound 0.0316 µM, first compound 3.16 µM) 8.11% | viability, T/C (second compound 0.1 µM, first compound 0.0316 µM) 110% | viability, T/C (second compound 0.1 µM, first compound 0.1 µM) 100% | viability, T/C (second compound 0.1 µM, first compound 0.316 µM) 69% | viability, T/C (second compound 0.1 µM, first compound 1 µM) 49.2% | viability, T/C (second compound 0.1 µM, first compound 3.16 µM) 9.57% | viability, T/C (second compound 0.316 µM, first compound 0.0316 µM) 106% | viability, T/C (second compound 0.316 µM, first compound 0.1 µM) 97.8% | viability, T/C (second compound 0.316 µM, first compound 0.316 µM) 71.8% | viability, T/C (second compound 0.316 µM, first compound 1 µM) 55.5% | viability, T/C (second compound 0.316 µM, first compound 3.16 µM) 5.27% | viability, T/C (second compound 1 µM, first compound 0.0316 µM) 118% | viability, T/C (second compound 1 µM, first compound 0.1 µM) 110% | viability, T/C (second compound 1 µM, first compound 0.316 µM) 86.5% | viability, T/C (second compound 1 µM, first compound 1 µM) 53.7% | viability, T/C (second compound 1 µM, first compound 3.16 µM) 6.46% | viability, T/C (second compound 3.16 µM, first compound 0.0316 µM) 102% | viability, T/C (second compound 3.16 µM, first compound 0.1 µM) 105% | viability, T/C (second compound 3.16 µM, first compound 0.316 µM) 79.9% | viability, T/C (second compound 3.16 µM, first compound 1 µM) 41.9% | viability, T/C (second compound 10 µM, first compound 0.0316 µM) 99.6% | viability, T/C (second compound 10 µM, first compound 0.1 µM) 102% | viability, T/C (second compound 10 µM, first compound 0.316 µM) 76.2% | viability, T/C (second compound 10 µM, first compound 1 µM) 70.4% | viability, T/C (second compound 10 µM, first compound 3.16 µM) 7.3%
948 nM: IC50 (second compound 0.0316 µM)
778 nM: IC50 (second compound 3.16 µM)
